The text below walks through data of patent US10611740B2, “Aryl dihydro-2H-benzo[b][1,4]oxazine sulfonamide and related compounds for use as agonists of RORγ and the treatment of disease” (Lycera Corporation, priority 2015, dated 2020).

One test deals with T1, RORγ-LBD (Homo sapiens, UniProt P51449).
T1 construct: made in house; host or cells: SF9 cells (baculovirus)
T1 sequence (P51449 269-508 limits assumed): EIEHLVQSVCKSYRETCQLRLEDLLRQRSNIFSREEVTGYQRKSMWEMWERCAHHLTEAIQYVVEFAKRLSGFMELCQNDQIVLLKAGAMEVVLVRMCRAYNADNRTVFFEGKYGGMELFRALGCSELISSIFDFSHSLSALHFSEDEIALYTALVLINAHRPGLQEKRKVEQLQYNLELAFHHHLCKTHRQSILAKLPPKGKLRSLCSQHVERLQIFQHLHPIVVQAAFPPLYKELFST
Briefly: RORγ-Ligand Binding Domain (LBD) TR-FRET Assay.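 For TR-FRET Assay Max Response: 665/615 nm ratio relative to signal without ursolic acid or compound set at 100.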 The class given is biochemical. Put shortly:
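TR-FRET read-out using a biotin-tagged SRC1 coactivator LXXLL peptide (200 nM final), with the antagonist ursolic acid present at 2 μM final. Receptor is His-tagged LBD expressed in SF9 cells, ~3 nM final in pH 7.0 Tris/KCl/EDTA/DTT/BSA buffer; compounds in 1% DMSO final.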
On the technique in general: TR-FRET usually uses a lanthanide donor and a delayed reading to cut background.

In a further test the target is T2, Gal4-RORγ-LBD (Homo sapiens, UniProt P51449).
T2 construct: expressed in transfected cells; host or cells: HEK-293 cells (pcDNA3.1neo plasmid)
T2 sequence (P51449 269-508 limits assumed): T1 sequence (P51449 269-508 limits assumed)
Briefly: Gal4-RORγ Luciferase Reporter Assay in HEK-293T Cells. The class given is cell-based. The following applies: HEK-293 cells. Put shortly:
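Luminescence read-out (One-Glo, 10 min RT) after overnight compound exposure at 37 °C in HEK-293 cells carrying Gal4-RORγ-LBD plus a Gal4-luciferase reporter, in the presence of 2 μM ursolic acid. Max Response is the upper plateau from a 4-parameter logistic fit, normalized to untreated signal = 100.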

Setting [1] is: luciferase reporter, with 2 μM ursolic acid.

Usually EC50 stands for the concentration giving half of the maximal effect. Higher therefore signals lower potency in that assay.

Bounds are passed on as bounds.

On to `O=C(O)[C@@H](O)CC[C@H]1CN(S(=O)(=O)c2cccc(C(F)(F)F)c2)c2cc(-c3cc(F)ccc3F)ccc2O1` [Compound 37, (S)-4-((S)-6-(2,5-difluorophenyl)-4-((3-(trifluoromethyl)phenyl)sulfonyl)-3,4-dihydro-2H-benzo[b][1,4]oxazin-2-yl)-2-hydroxybutanoic acid], for which, at RORγ-LBD, the EC50 is less than 0.5 µM and the “TR-FRET Assay Max Response” value was “*** (The symbol “***” indicates a value in the range of greater than 150 to 200)”. For the same molecule, at Gal4-RORγ-LBD (setting [1]), the EC50 lay in the range of 0.5 to 5 µM and the “Gal4-RORγ Assay Max Response” value was “*** (The symbol “***” indicates a value in the range of greater than 150 to 200)”.

As to `O=C(O)CC[C@H]1CN(S(=O)(=O)c2cccc(C(F)(F)F)c2)c2cc(-c3cc(Cl)ccc3Cl)ccc2O1` [Compound 2AM, (S)-3-(6-(2,5-dichlorophenyl)-4-((3-(trifluoromethyl)phenyl)-sulfonyl)-3,4-dihydro-2H-benzo[b][1,4]oxazin-2-yl)propanoic acid], the EC50 at RORγ-LBD and on Gal4-RORγ-LBD (setting [1]) was less than 0.5 µM each time.

On to `CC(C)c1cccc(-c2ccc3c(c2)N(S(=O)(=O)c2cccc(C(F)(F)F)c2)C[C@H](CCC(=O)O)O3)c1` [Compound 2Y, (S)-3-(6-(3-isopropylphenyl)-4-((3-(trifluoromethyl)phenyl)-sulfonyl)-3,4-dihydro-2H-benzo[b][1,4]oxazin-2-yl)propanoic acid], for which, on RORγ-LBD, the 50% effective concentration (EC50) was less than 0.5 µM and the “TR-FRET Assay Max Response” value is reported as “*** (The symbol “***” indicates a value in the range of greater than 150 to 200)”. At Gal4-RORγ-LBD (setting [1]), the concentration for a half-maximal effect (EC50) is less than 0.5 µM and the “Gal4-RORγ Assay Max Response” value was “** (The symbol “**” indicates a value in the range of greater than 90 to 150)”.

In the case of `O=C(O)CC[C@H]1CN(S(=O)(=O)c2cccc(C3CC3)c2)c2cc(-c3cccc(Cl)c3)ccc2O1` [Compound 6H, (S)-3-(6-(3-chlorophenyl)-4-((3-cyclopropylphenyl)sulfonyl)-3,4-dihydro-2H-benzo[b][1,4]oxazin-2-yl)propanoic acid], on RORγ-LBD, the half-maximal effective concentration (EC50) is less than 0.5 µM and the “TR-FRET Assay Max Response” value was “**** (The symbol “****” indicates a value greater than 200)”. Further, at Gal4-RORγ-LBD (setting [1]), the EC50 was less than 0.5 µM and the “Gal4-RORγ Assay Max Response” value was “** (The symbol “**” indicates a value in the range of greater than 90 to 150)”.

Turning to `COc1cc(S(=O)(=O)N2C[C@H](CNS(=O)(=O)N3CC[C@H](O)C3)Oc3ccc(-c4cc(F)ccc4F)cc32)ccc1F` [Compound 45E, (S)-N-(((S)-6-(2,5-difluoro-phenyl)-4-((4-fluoro-3-methoxyphenyl)sulfonyl)-3,4-dihydro-2H-benzo[b][1,4]oxazin-2-yl)methyl)-3-hydroxy-pyrrolidine-1-sulfonamide], on RORγ-LBD, the EC50 was less than 0.5 µM and the “TR-FRET Assay Max Response” value is given as “*** (The symbol “***” indicates a value in the range of greater than 150 to 200)”. At Gal4-RORγ-LBD (2 μM ursolic acid), the EC50 was less than 0.5 µM and the “Gal4-RORγ Assay Max Response” value is reported as “** (The symbol “**” indicates a value in the range of greater than 90 to 150)”.

On to `O=C(O)CC[C@H]1CN(S(=O)(=O)c2cccc(C(F)(F)F)c2)c2cc(-c3cccc(C(F)(F)F)n3)cc(F)c2O1` [Compound 22A, (S)-3-(8-fluoro-4-((3-(trifluoromethyl)phenyl)-sulfonyl)-6-(6-(trifluoromethyl)pyridin-2-yl)-3,4-dihydro-2H-benzo[b][1,4]oxazin-2-yl)propanoic acid], for which, at RORγ-LBD, the EC50 is less than 0.5 µM and the “TR-FRET Assay Max Response” value was “**** (The symbol “****” indicates a value greater than 200)”. Besides, on Gal4-RORγ-LBD (setting [1]), the concentration giving a half-maximal response (EC50) is less than 0.5 µM and the “Gal4-RORγ Assay Max Response” value is on record as “** (The symbol “**” indicates a value in the range of greater than 90 to 150)”.

In the case of `O=C(O)CC[C@H]1CN(S(=O)(=O)c2cccc(C(F)(F)F)c2)c2cc(-c3cccc(OCCO)c3)ccc2O1` [Compound 4AB, (S)-3-(6-(3-(2-hydroxyethoxy)-phenyl)-4-((3-(trifluoromethyl)phenyl)-sulfonyl)-3,4-dihydro-2H-benzo[b][1,4]oxazin-2-yl)propanoic acid], the EC50 at RORγ-LBD and at Gal4-RORγ-LBD (setting [1]) was greater than 10 µM each time.

As to `O=C(O)CC[C@H]1CN(S(=O)(=O)c2cccc(C(F)(F)F)c2)c2cc(-c3cccc(C4CC4)c3)ccc2O1` [Compound 4R, (S)-3-(6-(3-cyclopropylphenyl)-4-((3-(trifluoromethyl)phenyl)-sulfonyl)-3,4-dihydro-2H-benzo[b][1,4]oxazin-2-yl)propanoic acid], at RORγ-LBD, the EC50 was less than 0.5 µM and the “TR-FRET Assay Max Response” value is recorded as “**** (The symbol “****” indicates a value greater than 200)”. In addition, on Gal4-RORγ-LBD (setting [1]), the EC50 was less than 0.5 µM and the “Gal4-RORγ Assay Max Response” value is “**** (The symbol “****” indicates a value greater than 200)”.

In the case of `C[C@@H](CC(=O)O)[C@H]1CN(S(=O)(=O)c2cccc(C(F)(F)F)c2)c2cc(-c3cc(F)cc(F)c3Cl)ccc2O1` [Compound 80C, (S)-3-((S)-6-(2-chloro-3,5-difluorophenyl)-4-((3-(trifluoromethyl)phenyl)sulfonyl)-3,4-dihydro-2H-benzo[b][1,4]-oxazin-2-yl)butanoic acid], at RORγ-LBD, the 50% effective concentration (EC50) was less than 0.5 µM and the “TR-FRET Assay Max Response” value was “*** (The symbol “***” indicates a value in the range of greater than 150 to 200)”. In addition, on Gal4-RORγ-LBD (2 μM ursolic acid), the EC50 is less than 0.5 µM and the “Gal4-RORγ Assay Max Response” value is listed as “** (The symbol “**” indicates a value in the range of greater than 90 to 150)”.

As to `N#CCC(=O)NC[C@H]1CN(S(=O)(=O)c2cccc(C(F)(F)F)c2)c2cc(-c3cc(F)ccc3F)ccc2O1` [Compound 30AP, (S)-2-cyano-N-((6-(2,5-difluoro-phenyl)-4-((3-(trifluoromethyl)-phenyl)sulfonyl)-3,4-dihydro-2H-benzo[b][1,4]oxazin-2-yl)methyl)acetamide], at RORγ-LBD, the half-maximal effective concentration (EC50) was less than 0.5 µM and the “TR-FRET Assay Max Response” value is on record as “*** (The symbol “***” indicates a value in the range of greater than 150 to 200)”. Besides, on Gal4-RORγ-LBD (setting [1]), the EC50 was less than 0.5 µM and the “Gal4-RORγ Assay Max Response” value was “* (The symbol “*” indicates a value in the range of 25 to 90)”.

For `CC(C)c1cccc(S(=O)(=O)N2C[C@H](CCc3n[nH]c(=O)o3)Oc3ccc(-c4cc(F)ccc4F)cc32)c1` [Compound 28D, (S)-5-(2-(6-(2,5-difluorophenyl)-4-((3-isopropylphenyl)sulfonyl)-3,4-dihydro-2H-benzo[b][1,4]-oxazin-2-yl)ethyl)-1,3,4-oxadiazol-2(3H)-one], on RORγ-LBD, the concentration giving a half-maximal response (EC50) is less than 0.5 µM and the “TR-FRET Assay Max Response” value was “**** (The symbol “****” indicates a value greater than 200)”. At Gal4-RORγ-LBD (setting [1]), the concentration giving a half-maximal response (EC50) is less than 0.5 µM and the “Gal4-RORγ Assay Max Response” value is on record as “** (The symbol “**” indicates a value in the range of greater than 90 to 150)”.

As for `Cc1ccc(N(C)C)nc1-c1ccc2c(c1)N(S(=O)(=O)c1cccc(C(F)(F)F)c1)C[C@H](CCC(=O)O)O2` [Compound 4AO, (S)-3-(6-(6-(dimethylamino)-3-methylpyridin-2-yl)-4-((3-(trifluoromethyl)phenyl)sul-fonyl)-3,4-dihydro-2H-benzo[b][1,4]oxazin-2-yl)propanoic acid], on RORγ-LBD, the EC50 was 0.5 to 5 µM and the “TR-FRET Assay Max Response” value is “* (The symbol “*” indicates a value in the range of 25 to 90)”. For the same molecule, at Gal4-RORγ-LBD (setting [1]), the EC50 was greater than 10 µM and the “Gal4-RORγ Assay Max Response” value is “* (The symbol “*” indicates a value in the range of 25 to 90)”.
